The values below come from ChEMBL document CHEMBL1142113, “Limonoids from the seeds of the marine mangrove Xylocarpus granatum” (J Nat Prod, 2007).

The subject of series [1] is A549. As to the kind of experiment: Cytotoxicity against human A549 cells by SRB method. It is filed as cell-based. The conditions noted are these: for Activity: human, a549; for IC50: Homo sapiens, A549.
For series [2], the system named is P388. As to the kind of experiment: Cytotoxicity against mouse P388 cells by MTT method. The series is classed as cell-based. Conditions: for Activity: mouse, p388; for IC50: Mus musculus, P388; call rule not given here.

For `C/C=C(\C)C(=O)O[C@@H]1[C@@H]2[C@H]3O[C@@]34[C@H](CC[C@@]3(C)[C@H](c5ccoc5)OC(=O)C[C@@]43O)[C@]3(C)[C@@H](CC(=O)OC)[C@]1(C)CO[C@]23O` [GRANAXYLOCARPIN C], the Activity entry in series [1] and in series [2] was “Not Active” each time.

`COC(=O)C1=CC[C@@]23CC[C@@H]([C@@](C)(/C=C/C=C(\C)C(=O)O)OC2=O)[C@@]3(OC(C)=O)CC1` [PSEUDOLARIC ACID B]: the concentration for half-maximal inhibition (IC50) in series [2] is 0.74 µM.

With `CCC(C)C(=O)O[C@@H]1C([C@@H](OC(C)=O)[C@@]2(O)C(=O)CC[C@]3(C)C2=CC(=O)O[C@H]3c2ccoc2)C(=O)[C@H](C)[C@@H](CC(=O)OC)C1(C)C` (stereo partly specified) [GRANAXYLOCARPIN A], the results for the IC50 in series [1] and in series [2] were more than 10 µM and 9.3 µM, respectively.

For the compound `C/C=C(\C)C(=O)O[C@H](C1=CC(C)(C)[C@H](CC(=O)OC)[C@@H](C)C1=O)[C@@]1(O)C(=O)CC[C@]2(C)C1=CC(=O)O[C@H]2c1ccoc1` [GRANAXYLOCARPIN B], the IC50 is more than 10 µM in series [1] and 4.9 µM in series [2].

As for `COC(=O)[C@H](OC(C)=O)[C@H]1[C@]2(C)C[C@]3(OC(C)=O)[C@H]([C@H]2OC(C)=O)[C@@H](OC(C)=O)[C@]2(O)[C@@H]4CC(=O)O[C@@H](c5ccoc5)[C@]4(C)CC[C@@H]2[C@]13C` [GRANAXYLOCARPIN E], the Activity entry in series [1] and in series [2] was “Not Active” throughout.

On to `COC(=O)[C@H](O)[C@H]1[C@]2(C)C[C@]3(OC(C)=O)[C@H]([C@H]2OC(C)=O)[C@@H](OC(C)=O)[C@]2(O)[C@@H]4CC(=O)O[C@@H](c5ccoc5)[C@]4(C)[C@@H](OC(C)=O)C[C@@H]2[C@]13C` [GRANAXYLOCARPIN D], for which the Activity result in series [1] and in series [2] was “Not Active” throughout.

The IC50 is the concentration at which inhibition is half-maximal. A low value points to greater potency in that assay.
